{
  "source": "paper PMC3341351",
  "about": "“Down-Regulation of GABAA Receptor via Promiscuity with the Vasoactive Peptide Urotensin II Receptor. Potential Involvement in Astrocyte Plasticity” (PLoS ONE, 2012)",
  "format_in_all_cases": "cell-based",
  "key": {"[1]": {"molecular_target": "T1, α2β3γ2 GABAAR co-expressed with human UT (Homo sapiens, UniProt Q9UKP6)", "T1 construct": "expressed in transfected cells; host or cells: CHO-K1 stably expressing human UT (pIRES-neo2-UT), transiently nucleofected with GABAAR subunit cDNAs", "T1 sequence (Q9UKP6 1-389)": "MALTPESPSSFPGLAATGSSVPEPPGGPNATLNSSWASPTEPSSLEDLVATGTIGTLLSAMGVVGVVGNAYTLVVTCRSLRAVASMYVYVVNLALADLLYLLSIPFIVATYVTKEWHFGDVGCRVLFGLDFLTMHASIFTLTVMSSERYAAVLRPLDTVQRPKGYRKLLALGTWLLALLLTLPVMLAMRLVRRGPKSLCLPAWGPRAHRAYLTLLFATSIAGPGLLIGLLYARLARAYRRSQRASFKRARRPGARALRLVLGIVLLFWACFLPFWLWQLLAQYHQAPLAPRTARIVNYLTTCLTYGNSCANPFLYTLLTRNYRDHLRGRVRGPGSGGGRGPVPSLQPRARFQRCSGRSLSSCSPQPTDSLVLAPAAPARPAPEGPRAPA", "assay": "Patch-clamp of Iso-evoked current in CHO-UT co-expressing α2β3γ2 GABAAR (CHO-UT-GABAAR)", "conditions": "for Current inhibition by GABAAR antagonists: SR95531 10^−5 M, picrotoxin 10^−4 M", "procedure": "CHO-K1 cell lines were obtained from American Type Culture Collection (Manassas, VA, USA). The human UT stable CHO (CHO-UT) was generously provided by Dr Christophe Dubessy (Inserm, Rouen University, France) et generated by CHO electroporation with 20 µg pIRES-neo2-UT DNA and 500 µg sterile sonicated salmon sperm DNA using the EasyJect One electroporation system (Equibio, Angleur, Belgium), followed by repetitive rounds of limiting dilution of cells in G-418 (400 µg/ml) for selection. Normal or stable CHO was grown in Ham-F12 medium supplemented with 10% FBS, 1% antibiotic-antimicotic solution and 2 mM glutamine, at 37°C in a humidified incubator with an atmosphere of 5% CO2. The stable CHO-UT medium was supplemented with the antibiotic G-418 (40 µg/ml).\n(§1) For transfection, cells were trypsinized (0.05%), triturated in HamF-12 containing 10% FBS media, pelleted by centrifugation, resuspended in 100 µl solution V for nucleofection by an Amaxa Nucleofector Device (Köln, Germany; set to program U-016). Experiments were performed on normal CHO or on the stable CHO-UT cells and transiently transfected with combinations of cDNA encoding α2β3γ2, α2β3γ1, α2β1γ2, α2β3γ1, α2β3, β3γ2 (4 µg of cDNA total/transfection) GABAAR subunits. Cells were seeded on 14-mm poly-L-lysine-coated glass bottom insert dishes at 5×10^5 cells in a volume of 0.5 ml/dish. Cells were incubated overnight at 37°C in a humidified incubator (5% CO2) during 16 h before electrophysiological or immunocytochemical experiments.\n(§2) GABAA receptor cDNA clones; α2, β1, β3, γ1 and γ2L engineered into the expression vector pCDM8 ([…], β1, γ2) or pcDNA/Amp (β3, γ1), were generously provided by Dr Wingrove (Merk Sharp and Dohme, Harlow, UK). To obtain β3 ^HA or γ2 ^HA epitope-tagged subunits, β3 or γ2 cDNA was amplified and the PCR product was subcloned using the SalI and NotI sites of pCMV-HA (Table S2) after digestion by the same restriction enzymes.\n(§3) The conventional whole-cell configuration of the patch-clamp technique was used to study the GABA-gated currents in astrocytes and granule neurons, UT stably transfected CHO, CHO-UT, and CHO transiently transfected with diverse variants of UT and GABAAR subunits. After 24-h transfection, cell culture coverslips were placed in a small chamber (1.5 ml) on a stage of a right microscope DMLFSA (Leica, Heidelberg, Germany) and superfused continuously with the following bath solution containing (in mM): NaCl, 150; KCl, 2.5; HEPES, 5; CaCl2, 2; MgCl2, 1; glucose, 10 (pH 7.4 adjusted with NaOH). The patch pipettes were fabricated from 1.5 mm (outer diameter) soft glass tubes on a two-step vertical pipette puller (List-Medical, L/M-3P-A, Darmstadt, Germany). […] ATP and GTP were added to the internal solution used to fill electrode just before recording. All recordings were obtained at RT with cells voltage-clamped at −70 mV. The GABAA receptor agonist isoguvacine was prepared in the extracellular solution and was applied to cells by pneumatic pressure ejection. To prevent desenzitization, isoguvacine was more often ejected during 5 s at 2-min intervals. ATP, GTP, or guanosine 5′-O-(2-thiodiphosphate) (GDPβS) were administered through the patch pipette solution. We investigated the effect of competitive inhibition of GDP-GTP exchange by including GDPβS in the pipette solution (in addition to the normal amount of GTP). For GDPβS and the KIC, immediately following patch rupture, GABA current recordings were performed and the experiment was commenced after an equilibration period of 15 min.\nAll peptide ligands, inhibitors or allosteric modulators of the GABAA receptor function were applied via gravity through a plastic tubing positioned in the vicinity of the cell body in order to maintain a sustained perfusion. In these conditions, drugs could reach the cell of interest after 30 s of perfusion. Isoguvacine was applied focally by pneumatic pressure ejection from a micropipette."}, "[2]": {"system": "α2β3γ2 GABAAR in the absence of UT", "assay": "Patch-clamp of Iso-evoked current in CHO expressing α2β3γ2 GABAAR without UT", "conditions": "DMCM 10^−5 M; hUII and URP 10^−8 M; [Orn^5]-URP and palosuran 10^−6 M; Iso 10^−4 M, 2 s; n = 3–18", "procedure": "as §1, §2\nas §3, with “min. […]” for “min.”"}, "[3]": {"molecular_target": "T2, GABAAR in cerebellar astrocytes (UT co-expressed) (Rattus norvegicus, UniProt P49684)", "T2 construct": "Astrocytes, recognized by strong GFAP staining show UT immunoreactivity; endogenous in cells; host or cells: primary rat (P7 Wistar) cerebellar astrocytes co-cultured with cerebellar granule neurons", "T2 sequence (P49684 1-386)": "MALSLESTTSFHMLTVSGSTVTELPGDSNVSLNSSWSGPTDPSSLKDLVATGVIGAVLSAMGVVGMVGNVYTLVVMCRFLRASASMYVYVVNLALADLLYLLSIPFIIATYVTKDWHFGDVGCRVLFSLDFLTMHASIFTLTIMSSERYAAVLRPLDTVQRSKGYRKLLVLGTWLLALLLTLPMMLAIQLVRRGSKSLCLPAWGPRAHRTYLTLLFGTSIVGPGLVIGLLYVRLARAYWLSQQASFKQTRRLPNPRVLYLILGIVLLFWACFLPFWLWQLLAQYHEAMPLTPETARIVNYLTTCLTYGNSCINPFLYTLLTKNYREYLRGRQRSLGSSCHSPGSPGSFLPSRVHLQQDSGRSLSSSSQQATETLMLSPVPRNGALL", "assay": "Whole-cell patch-clamp of isoguvacine (Iso)-evoked depolarization/chloride current in cerebellar astrocytes co-cultured with granule neurons", "conditions": "for inhibition at 0.1 µM: rUII 10^−7 M, 40 s, Iso 10^−4 M, mean ± SEM, n = 5", "procedure": "Primary Cell Culture of astrocytes and astrocyte-neurone co-culture\nPrimary cultures of astrocytes were prepared as previously described. Briefly, cerebellum from 7-day-old (P7) Wistar rats were collected in DMEM/Ham-F12 (2∶1, v/v) culture medium supplemented with 2 mM glutamine, 1% insulin, 5 mM HEPES, 0.4% D(+)-glucose and 1% of the antibiotic-antimycotic solution. The tissues were disaggregated mechanically with a syringue equipped with a 1-mm gauge needle, and filtered through a 100-µm pore size mesh filter (Falcon, Becton Dickinson, Grenoble, France). Dissociated cells were resuspended in culture medium supplemented with 10% heat-inactivated FBS and seeded in 150-cm^2 culture flasks (Falcon) at a density of 20×10^6 cells/flask. Cells were incubated at 37°C in a humidified atmosphere (5% CO2) and the medium was changed twice a week. When cultures were confluent, the flasks were gently shaken on an orbital shaker at […] for 2 h. Dislodged cells were discarded and a second step of purification was performed at […] for 14–16 h. Remaining adhesive cells were collected by trypsination, centrifuged (800 g, 10 min) and plated in 150-cm^2 flasks. Suspended astrocytes were harvested and seeded in 24-well poly-L-lysine-coated plates. The purity of the cultures was previously assessed by counting the percentage of astrocytes immunostained with GFAP antibodies. The enriched cultures contained >99% astrocytes.\nFor astrocyte-neuron co-culture, granule cell cultures were prepared from cerebella of P7 Wistar rats as described previously. Isolated cells were plated on 14-mm culture dishes coated with poly-L-lysine (5 mM) at a density of 1.5×10^6 cells/dish and incubated at 37°C in a humidified atmosphere (5% CO2) for 1 to 10 days before use. Culture medium consisted of DMEM/Ham's F12 (75%/25%) supplemented with 10% FBS, 2 mM glutamine, 5 µg/ml insulin, 25 mM KCl and 1% of antibiotic-antimycotic solution. Co-cultures are obtained by seeding granule cells (1.5×10^6 cells/ml) on cerebellar astrocytes plated in 24-well plates after 12 hours. Co-cultures are maintained in the specific medium for neuron and incubated at 37°C in an humidified atmosphere (5% CO2) for several days.\nas §3, with “min. […]” for “min.”"}},
  "note": "Like-named read-outs stand apart in the source and are kept apart here. Where a SMILES comes first, the peptide text is derived from it. Bridges are numbered along the chain shown (N, C = ends). [ ]: non-standard residue; d: D form. pGlu = O=C1CC[C@@H](C(=O)O)N1",
  "data": [
    {"molecule": "O=C(O)CN(CC(=O)O)c1ccccc1OCCOc1ccccc1N(CC(=O)O)CC(=O)O", "note": "[BAPTA]", "values": [
      {"measurement": "Reduction of hUII-induced long-term current inhibition", "setting": "[1]; BAPTA 10^−4 M intracellular dialysis, n = 9", "value": "39.29±10.16", "unit": "%"}
    ]},
    {"molecule": "CCc1c(C(=O)OC)ncc2[nH]c3cc(OC)c(OC)cc3c12", "note": "[DMCM, methyl 6,7-dimethoxy-4-ethyl-β-carboline-3-carboxylate]", "values": [
      {"measurement": "Effect on Iso-evoked current in the absence of UT", "setting": "[2]", "value": "induced inhibition of the current in most tested cells"}
    ]},
    {"molecule": "Br.COc1ccc(-c2ccc(=N)n(CCCC(=O)O)n2)cc1", "note": "[SR95531]", "values": [
      {"measurement": "Current inhibition by GABAAR antagonists", "setting": "[1]; Figure S1A", "value": "76.92±10.35", "unit": "%"}
    ]},
    {"molecule": "CCCC(C)C1(CC)C(=O)NC(=O)NC1=O", "note": "(stereo not shown) [pentobarbital]", "values": [
      {"measurement": "Direct activation of chloride current", "setting": "[1]; pentobarbital 10^−5 M, Figure S1A", "value": "directly activated a chloride current"},
      {"measurement": "Potentiation of the Iso-evoked current", "setting": "[1]; pentobarbital 10^−5 M, reversible, Figure S1A", "value": "196.28±12.33", "unit": "%"}
    ]},
    {"molecule": "CC[C@H](C)[C@H](NC(=O)[C@@H]1CSSC[C@H](NC(=O)[C@H](CCC(=O)O)NC(=O)[C@@H]2CCCN2C(=O)[C@H](C)NC(=O)[C@@H](NC(=O)CNC(=O)[C@H](Cc2c[nH]cn2)NC(=O)[C@@H]2CCC(=O)N2)[C@@H](C)O)C(=O)N[C@@H](Cc2ccccc2)C(=O)N[C@@H](Cc2c[nH]c3ccccc23)C(=O)N[C@@H](CCCCN)C(=O)N[C@@H](Cc2ccc(O)cc2)C(=O)N1)C(=O)O", "note": "[rUII] ([pGlu]HGTAPECFWKYCI-OH; disulfide 8-13)", "values": [
      {"measurement": "EC50", "setting": "[3]; astrocytes, printed with a % sign before pM, read-out: EC50 for inhibition of the Iso-evoked current", "value": "43.6 ± 23.7", "unit": "pM"},
      {"measurement": "inhibition at 0.1 µM", "setting": "[3]; co-cultured astrocytes, read-out: Inhibition of the amplitude of the Iso-evoked depolarization", "value": "24.2 ± 7.5", "unit": "%"},
      {"measurement": "inhibition at 0.1 µM", "setting": "[3]; voltage clamp −60 mV, read-out: Inhibition of the amplitude of the Iso-evoked chloride current", "value": "33 ± 8", "unit": "%"}
    ]},
    {"molecule": "picrotoxin", "values": [
      {"measurement": "Current inhibition by GABAAR antagonists", "setting": "[1]; Figure S1A", "value": "56.76±4.33", "unit": "%"}
    ]},
    {"molecule": "UT^c-myc 319–389: peptidomimetic corresponding to the entire C-terminus cytosolic fragment of UT (protein, UniProt Q9UKP6 319-389, looked up, fragment, c-myc tag) TRNYRDHLRGRVRGPGSGGGRGPVPSLQPRARFQRCSGRSLSSCSPQPTDSLVLAPAAPARPAPEGPRAPA", "values": [
      {"measurement": "Effect of UT C-terminal peptidomimetic on fast and long-term effects of hUII on GABA-evoked current", "setting": "[1]; UT^c-myc 319–389 expressed in CHO-UT-GABAAR, hUII 10^−8 M", "value": "completely inhibited the fast and long-term effects of hUII on the GABA-evoked current"}
    ]}
  ]
}
